Laboratory results from patent publication US8071321B2, “Methods for up-regulating antigen expression in tumors” (CytoCure LLC, priority 2002, dated 2011).

Legend:
[1] = system: gp100 antigen in MU-X melanoma cells; experiment: Flow cytometric analysis of gp100 (HMB) staining in MU-X low antigen-expressing cells; format: cell-based, human
Description: (§1) Determination of protein Antigen in Tumor Cells via Flow Cytometric Analysis: To evaluate expression of cytoplasmic Melan-A/MART-1 antigen in melanoma tumor cell lines, cells were first fixed for 10′ in 1% paraformaldehyde; the cells are pelleted and incubated for 5′ in 0.1% saponin prior to washing and addition of monoclonal antibody specific for Melan-A/MART-1, A-103 (Ramirez-Montagut, et al., supra) for 45′ at 22° C. Following two washes, the cells were stained for 30′ with FITC-conjugated goat-anti-mouse Ig antibody (DAKO, Carpenteria, Calif.) prior to fixation in 1% paraformaldehyde and analysis by flow cytometry (FACScan, Becton-Dickinson, Mt. View, Calif.). Histograms of fluorescence staining were generated for comparison of anti-Melan-A/MART-1 staining of various cell populations. Mean channel fluorescence was calculated using the “LYSIS” software provided by the manufacturer. Gp100 expression was determined similarly using the HMB45 monoclonal antibody.

[2] = system: Melan-A/MART-1 in MITF-M transfected MU-X tumor cells; conditions: 24 hours, U0126 10 μM (FIG. 6)
Description: (§2) Primers were designed from appropriate GenBank mRNA and genomic entries and designed to be intron-spanning to prevent simultaneous amplification of traces of genomic DNAs. Where this was not possible RNAs were treated with RNase-free DNase I and repurified.
(§3) To express MITF-M in cell lines expressing low levels of Melan-A/MART-1, MITF-M coding sequence was amplified from MITF-M-positive cells and cloned in an SV40-promoter expression vector (pSV21ink); translation of the MITF-M insert uses optimal Kozak initiation signals (Kozak (1999). Gene 234:187). Constructs were transfected into low-Melan-A/MART-1 expressor melanoma (MU-X and A375). In all studies controls comprised empty vector, transfection reagents in the absence of added DNA, and corresponding untransfected cells. Data shown in FIG. 6 for A375 and MU-X tumor cells transfected with MITF-M for 24 hours in the presence (10 μM) or absence of U0126 before PCR amplification of Melan-A/MART-1.

[3] = system: Melan-A/MART-1 in MITF-M transfected A375 tumor cells; conditions: 24 hours, U0126 10 μM (FIG. 6)
Description: as §2, §3

[4] = system: gp100 antigen in MU-89 melanoma cells; experiment: Flow cytometric analysis of gp100 (HMB45 staining) in MU-89 cells; format: cell-based, human; conditions: HMB 45 staining, control MU-89 41.6
Description: as §1

[5] = system: melanocyte-related genes in MU-89 cells; experiment: RT-PCR of melanoma gene expression in MU-89 cells; format: cell-based, human; conditions: MU-89 cells (FIG. 5)

Molecule: Nc1ncn([C@H]2C[C@H](O)[C@@H](CO)O2)c(=O)n1 [5 azadeoxycytidine]
- effect on interferon-beta induced gp100 expression ([1]; gp100 (HMB) staining (FIG. 4)): augmented

Molecule: Nc1ncn([C@@H]2O[C@H](CO)[C@@H](O)[C@H]2O)c(=O)n1 [5-AZA, 5-azacytidine]
- gp100 mean channel fluorescence ([1]; MU-X cells, 5-AZA 40uM, MU-X control 12.8): 39.0

Molecule: N#CC(=C(/N)Sc1ccccc1N)/C(C#N)=C(\N)Sc1ccccc1N [U0126]
- Melan-A/MART-1 expression [2]: augmented enhancement
- Melan-A/MART-1 expression [3]: augmented enhancement

B1: OSM: Recombinant human oncostatin M (rhOSM) from R&D Systems (protein, UniProt P13725 26-221, looked up)
Oncostatin-M: AAIGSCSKEYRVLLGQLQKQTDLMQDTSRLLDPYIRIQGLDVPKLREHCRERPGAFPSEETLRGLGRRGFLQTLNATLGCVLHRLADLEQRLPKAQDLERSGLNIEDLEKLQMARPNILGLRNNIYCMAQLLDNSDTAEPTKAGRGASQPPTPTPASDAFQRKLEGCRFLHGYHRFMHSVGRVFSKWGESPNRSRR
- gp100 mean channel fluorescence [4]: 29.5
- MITF-A isoform expression [5]: not detectably responsive
- MITF-M expression [5]: down-modulates
- expression of Melan-A/MART-1, tyrosinase, gp100, TRP-1 and TRP-2 genes [5]: induces down-modulation
